Experimental findings from patent US9062043B2, “Fused tricyclic compounds as serine-threonine protein kinase and PARP modulators” (SENHWA BIOSCIENCES, INC., priority 2006, dated 2015) are described below.

As a reminder, the IC50 is the midpoint of a concentration-inhibition curve. Broadly, the AUC(0-inf) is total exposure, with the tail of the curve extrapolated. Higher therefore signals more exposure. In general, AUC(0-t) refers to the area under the concentration-time curve up to a stated or last time point. A low value points to low exposure. For orientation: Cmax means the peak of the concentration-time curve. As a reminder, the Tmax is the time from dosing to the highest level.

For data set [1], the system named is HCT-116 human colorectal carcinoma cells. As to the kind of experiment: Cell proliferation assay, Alamar Blue, HCT-116.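 Further: cells exposed to compound for about 4 days, then Alamar Blue added and fluorescence read after about 4 h, medium-only wells as control.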 The data set is classed as cell-based. The settings on record: HCT-116, Table 16, second HCT-116 column. For orientation: Alamar Blue is a resazurin reagent that responds to reducing activity.
Data set [2] relates to PC-3 human prostatic cancer cells. As to the kind of experiment: Cell proliferation assay, Alamar Blue, PC-3. The settings on record: Table 16, read-out: IC50 PC3. The data set is classed as cell-based. The protocol:
(§1) A representative cell-proliferation assay protocol using Alamar Blue dye (stored at 4° C., use 20 ul per well) is described hereafter.
(§2) c. Plate 4,000-5,000 cells per well in 100 μl of medium and seed into a 96-well plate according to the following plate layout. Add cell culture medium only to wells B10 to B12. Wells B1 to B9 have cells but no compound added.
(§3) d. Add 100 μl of 2× drug dilution to each well in a concentration shown in the plate layout above. At the same time, add 100 μl of media into the control wells (wells B10 to B12). Total volume is 200 μl/well.
(§4) e. Incubate four (4) days at 37° C., 5% CO2 in a humidified incubator.
(§5) f. Add 20 μl Alamar Blue reagent to each well.
(§6) g. Incubate for four (4) hours at 37° C., 5% CO2 in a humidified incubator.
(§7) h. Record fluorescence at an excitation wavelength of 544 nm and emission wavelength of 590 nm using a microplate reader.
(§8) In the assays, cells are cultured with a test compound for approximately four days, the dye then is added to the cells and fluorescence of […] dye is detected after approximately four hours. Different types of cells can be utilized in the assays (e.g., HCT-116 human colorectal carcinoma cells, PC-3 human prostatic cancer cells and MiaPaca human pancreatic carcinoma cells). Anti-proliferative effects of representative compounds are provided hereafter.

Data set [3] has as its system MiaPaca human pancreatic carcinoma cells. In words: Cell proliferation assay, Alamar Blue, MiaPaca. The data set is classed as cell-based. To be noted: MIA PaCa-2, Table 16. The procedure, abridged:
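Seed 4,000-5,000 cells per well. Add compound dilutions and incubate four days at 37° C, 5% CO2. Add Alamar Blue, incubate four hours, then record fluorescence at 544/590 nm.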

The next data set relates to Hs578T. In words: Cell proliferation assay, Alamar Blue, Hs578T. The data set is classed as cell-based. The settings on record: Homo sapiens, Hs-578T; Table 16.
Another data set relates to Jurkat. As to the kind of experiment: Cell proliferation assay, Alamar Blue, Jurkat.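 Further: cells exposed to compound for about 4 days at 37 °C, then Alamar Blue added and fluorescence read after about 4 h, controls given medium without drug.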 To be noted: Homo sapiens, Table 16. Format: cell-based.
A further data set has as its system H1299. In words: Cell proliferation assay, Alamar Blue, H1299. The settings on record: Homo sapiens, NCI-H1299; Table 16. Format: cell-based. The protocol: as §2, §3, §4, §5, §6, §7, §8
For a further data set, the system named is A549. As to the kind of experiment: Cell proliferation assay, Alamar Blue, A549. Format: cell-based. To be noted: Homo sapiens, Table 16. The protocol:
as §2, §3, §4, §5, §6, §7, §8

The test system of the next data set is HT29. In words: Cell proliferation assay, Alamar Blue, HT29. The settings on record: Homo sapiens, HT-29; Table 16. Format: cell-based. The procedure: as §2, §3, §4, §5, §6, §7, §8
Data set [4] can be described thus: Pharmacokinetics in ICR mice after IV and PO dose. The data set is classed as in vivo.
A further data set deals with MiaPaca xenografts. As to the kind of experiment: Tumor suppression in MiaPaca xenograft mice. The data set is classed as in vivo.
The subject of a further data set is MCF-7 xenografts. In words: Tumor suppression in MCF-7 xenograft animals. Format: in vivo, mice. To be noted: oral 100 mg/kg. The protocol: (§9) Animals were handled under laminar-flow hoods.
(§10) Gemar™ administered at a dose of 80 mg/kg IP Q3D was used as a positive control.

Another data set relates to PC-3 xenografts. In words: Tumor suppression in PC-3 xenograft animals. The data set is classed as in vivo, mice. The settings on record: oral 150 mg/kg. The procedure: as §9, §10
The test system of another data set is caspase-3. As to the kind of experiment: Caspase-3 staining in tumors as biomarker. The data set is classed as in vivo, mice. The settings on record: 60 mg/kg IV. The procedure: Caspase staining also was assessed as a biomarker for compound A1 treatment of tumors.
The next data set has as its system BxPC3. In words: Cell proliferation assay, Alamar Blue, BxPC3. To be noted: Homo sapiens, BXPC-3; Table 16. Format: cell-based. The protocol:
as §2, §3, §4, §5, §6, §7, §8

The next data set concerns A375. In words: Cell proliferation assay, Alamar Blue, A375. Format: cell-based. The settings on record: Homo sapiens, A-375; A375 cells, anti-proliferative. The protocol:
as §1, §2, §3, §4, §5, §6, §7, §8

In a further data set the test system is MDAMB231. In words: Cell proliferation assay, Alamar Blue, MDAMB231. The data set is classed as cell-based. The settings on record: Homo sapiens, MDA-MB-231; MDAMB231 cells, anti-proliferative. The protocol: as §1, §2, §3, §4, §5, §6, §7, §8
A further data set has as its system Raji. In words: Cell proliferation assay, Alamar Blue, Raji. The data set is classed as cell-based. The settings on record: Homo sapiens; Raji cells, anti-proliferative. The procedure:
as §1, §2, §3, §4, §5, §6, §7, §8

Another data set deals with PanC1. In words: Cell proliferation assay, Alamar Blue, PanC1. The data set is classed as cell-based. To be noted: Homo sapiens, PANC-1; PanC1 cells, anti-proliferative; read-out: IC50 (uM) PanC1. The protocol:
as §1, §2, §3, §4, §5, §6, §7, §8

In another data set the test system is LNCaP. As to the kind of experiment: Cell proliferation assay, Alamar Blue, LNCaP. The data set is classed as cell-based. The settings on record: Homo sapiens; LNCaP cells, anti-proliferative. The protocol:
as §1, §2, §3, §4, §5, §6, §7, §8

A further data set deals with MCF-7. As to the kind of experiment: Cell proliferation assay, Alamar Blue, MCF-7. Format: cell-based. The settings on record: Homo sapiens, MCF7; MCF-7 cells, anti-proliferative. The procedure: as §1, §2, §3, §4, §5, §6, §7, §8
A further data set deals with H460. In words: Cell proliferation assay, Alamar Blue, H460. The data set is classed as cell-based. The settings on record: Homo sapiens, NCI-H460; H460 cells, anti-proliferative. The protocol:
as §1, §2, §3, §4, §5, §6, §7, §8

For the next data set, the system named is HL-60. In words: Cell proliferation assay, Alamar Blue, HL-60. Format: cell-based. The settings on record: Homo sapiens; HL-60 cells, anti-proliferative. The procedure: as §1, §2, §3, §4, §5, §6, §7, §8
The next data set has as its system COLO 205. As to the kind of experiment: Cell proliferation assay, Alamar Blue, COLO 205. The data set is classed as cell-based. To be noted: Homo sapiens; COLO 205 cells, anti-proliferative. The protocol: as §1, §2, §3, §4, §5, §6, §7, §8
The test system of another data set is SK-OV-3. As to the kind of experiment: Cell proliferation assay, Alamar Blue, SK-OV-3. Format: cell-based. To be noted: Homo sapiens; SK-OV-3 cells, anti-proliferative. The protocol: as §1, §2, §3, §4, §5, §6, §7, §8

As for `CNC(=O)c1cccc(Nc2nc3cc(C(=O)O)ccc3c3sccc23)c1`, the IC50 in [1] was above 10 µM; in [2], 26.7 µM; in [3], above 10 µM; in the data set on Hs578T it was 9.07 µM; in the data set with Jurkat, 8.69 µM; in the data set with H1299, 13.8 µM. Besides, the figures for the IC50 in the data set on A549 and in the data set on HT29 were 6.94 µM and 3.56 µM, respectively.
In the case of `O=C(NC1CC1)c1cccc(Nc2nc3cc(-c4nnn[nH]4)ccc3c3sccc23)c1`, the IC50 in data set [1] is above 10 µM; in data set [2], 5.31 µM; in data set [3], 3.18 µM; with Hs578T it was 7.79 µM; in the data set with Jurkat, 6.97 µM; with H1299, 12.7 µM. Further, the IC50 in the data set on A549 turned out to be 4.49 µM; with HT29, 3.22 µM.
For the compound `O=C(O)c1ccc2c(c1)nc(Nc1cccc(Cl)c1)c1ccncc12` [compound A1], in [4] (IV 5 mg/kg), the CLs turned out to be 25 mL/min/kg, the Cp0-exp is 13201 ng/mL and the Kel was found to be 0.1586 h⁻¹. In data set [4] (PO 25 mg/kg), the “F(0-8 h)” value is on record as 10.9%, the “F(0-inf h)” value is given as 18.7% and the Kel amounted to 0.1076 h⁻¹. For the same compound, in [4] (mouse, plasma, IV 5 mg/kg), the AUC(0-inf) worked out at 3360 ng·h/mL, the AUC(0-t) is 3340 ng·h/mL and the Vd was found to be 9.4 L/kg. Moreover, in [4] (mouse, plasma, PO 25 mg/kg), the AUC(0-inf) was determined as 3150 ng·h/mL, the AUC(0-t) was determined as 2920 ng·h/mL, the maximum concentration (Cmax) was found to be 343 ng/mL and the Tmax amounted to 15 min. In the data set on MiaPaca xenografts (MiaPaca xenograft, oral 100 mg/kg QDx8 then 200 mg/kg QDx5, relative to untreated control), the Tumor growth inhibition result was “significantly inhibited tumor growth”. Moreover, in the data set with MCF-7 xenografts, the Tumor growth inhibition entry is on record as “significantly inhibited tumor growth”. Moreover, the Tumor growth inhibition result with PC-3 xenografts is “significantly inhibited tumor growth”. Moreover, the “Caspase-3 cell staining levels vs untreated control cells” value with caspase-3 is “four-fold greater”.
`O=C(O)c1ccc2c(c1)nc(Nc1cccc(C(F)(F)F)c1)c1nc(NC3CC3)ncc12` [compound A3]: the Tumor progression inhibition result in the data set with MiaPaca xenografts (MiaPaca xenografts, IV administration) was “significantly inhibited tumor progression”.
For `O=C(O)c1ccc2c(c1)nc(Nc1cc(Cl)cc(Cl)c1)c1ccsc12` [drawing 984], the IC50 turned out to be 8.76 µM in data set [1]; 32.2 µM in data set [2]; 14.6 µM in [3]; 7.67 µM with Hs578T; 4.31 µM in the data set on Jurkat; 0.97 µM in the data set with H1299. Moreover, the values for the IC50 in the data set with A549, in the data set on BxPC3 and in the data set on HT29 were 13.2 µM, 2.1 µM and 13 µM, respectively.
On to `O=C(O)c1ccc2c(c1)nc(Nc1cc(Cl)cc(Cl)c1)c1ccsc12` [drawing 991], for which the IC50 amounted to 19.9 µM with A375; 3.89 µM in the data set on MDAMB231; 17.7 µM in the data set on Raji; 20.3 µM with PanC1; 6.23 µM with LNCaP; 13.7 µM in the data set on MCF-7. The IC50 in the data set with H460 worked out at 12.3 µM; with HL-60 it was 1.94 µM; in the data set with COLO 205, 1.01 µM; in the data set on SK-OV-3, 11.7 µM.
